In patent US7534809B2, “Phospho-indoles as HIV inhibitors” (priority 2004, dated 2009):
Where two headings read alike, the source gives them in different places.

Columns and labels:
[1] = test system: HIV mutant strain K103N/Y181C; assay: Cell-based assay using BH-10 cells, K103N/Y181C mutant
Protocol: (§1) In a typical embodiment, the NNRTIs display an EC50 in a mutant HIV strain of less than approximately 5, 2.5, 1 or 0.1 μM concentration. The degree of cross-resistance against a drug resistant strain of HIV is measured by assessing the EC50 of the desired oxo-pyrimidine compound in the target mutated, i.e., drug resistant, virus.
(§2) The degree of cross-resistance against a drug resistant strain of HIV can easily be measured by assessing the EC50 of the desired indole in the target mutated i.e., drug resistant, virus.

[2] = test system: HIV mutant strain Y181C; assay: Cell-based assay using BH-10 cells, Y181C mutant
Protocol: as §1, §2

[3] = test system: HIV BH-10 WT; assay: Cell-based assay using BH-10 cells, wild type
[4] = BH-10 cells, K103N/Y181C mutant, read-out: EC50 K103N/Y181C
[5] = BH-10 cells, Y181C mutant, read-out: EC50 Y181C
[6] = BH-10 cells, wild type, read-out: EC50 WT///B
[7] = Human immunodeficiency virus 1, read-out: EC50 K103N/Y181C, BH-10 cells, K103N/Y181C mutant
[8] = Human immunodeficiency virus 1, read-out: EC50 Y181C, BH-10 cells, Y181C mutant
[9] = Human immunodeficiency virus 1, read-out: EC50 WT///B, BH-10 cells, wild type
[10] = read-out: EC50 K103N/Y181C, BH-10 cells, K103N/Y181C mutant

SMILES	EC50 [1, 4] [nM]	EC50 [2, 5] [nM]	EC50 [3, 6] [nM]	EC50 [1, 7] [nM]	EC50 [2, 8] [nM]	EC50 [3, 9] [nM]	EC50 [1, 10] [nM]	EC50 ([3]; read-out: EC50 WT///B, BH-10 cells, wild type) [nM]
COP(=O)(c1cc(C)cc(C)c1)c1c(C(=O)NCc2c(F)ccc(F)c2F)[nH]c2ccc(Cl)cc12 (centres unmarked) [CONHCH2(Ph: 2,3,6-tri-F)]	22.8	17.1	17.9	–	–	–	–	–
CCOP(=O)(c1cc(C)ccc1C)c1c(C(N)=O)[nH]c2ccc(Cl)cc12 (centres unmarked) [Compound 6aa]	1.6	1.9	0.2	–	–	–	–	–
CCOP(=O)(c1cccc(C)c1)c1c(C(N)=O)[nH]c2ccc(Cl)cc12 (centres unmarked) [Compound 6ab]	–	–	–	19.6	34.8	0.5	–	–
CCOP(=O)(c1cccc(F)c1)c1c(C(N)=O)[nH]c2ccc(Cl)cc12 (centres unmarked) [Compound 6ae]	11	61.6	0.5	–	–	–	–	–
CCOP(=O)(c1ccccc1CC)c1c(C(N)=O)[nH]c2ccc(Cl)cc12 (centres unmarked) [Compound 6ah]	–	–	–	307	211	16.2	–	–
CCOP(=O)(c1ccccc1Cl)c1c(C(N)=O)[nH]c2ccc(Cl)cc12 (centres unmarked) [Compound 6ai]	–	–	–	17.3	146	1.2	–	–
CCOP(=O)(c1cccc(Cl)c1)c1c(C(N)=O)[nH]c2ccc(Cl)cc12 (centres unmarked) [Compound 6d]	–	–	–	15.8	16.6	1.4	–	–
CCOP(=O)(c1cccc(CC)c1)c1c(C(N)=O)[nH]c2ccc(Cl)cc12 (centres unmarked) [Compound 6e]	–	–	–	1.2	34.1	2	–	–
CCOP(=O)(c1cccc(C(F)(F)F)c1)c1c(C(N)=O)[nH]c2ccc(Cl)cc12 (centres unmarked) [Compound 6f]	–	–	–	498	–	6.7	–	–
CCOP(=O)(c1cccc(C#N)c1)c1c(C(N)=O)[nH]c2ccc(Cl)cc12 (centres unmarked) [Compound 6g]	–	–	–	195	–	9.5	–	–
CCOP(=O)(c1cccc(C(C)C)c1)c1c(C(N)=O)[nH]c2ccc(Cl)cc12 (centres unmarked) [Compound 6i]	–	–	–	3.5	9.1	1.2	–	–
CCOP(=O)(c1cccc(OC)c1)c1c(C(N)=O)[nH]c2ccc(Cl)cc12 (centres unmarked) [Compound 6m]	–	–	–	66.4	–	2.3	–	–
CCOP(=O)(c1cccc2ccccc12)c1c(C(N)=O)[nH]c2ccc(Cl)cc12 (centres unmarked) [Compound 6t]	–	–	–	> 1250	> 1250	32.5	–	–
CCOP(=O)(c1ccc(C)cc1)c1c(C(N)=O)[nH]c2ccc(Cl)cc12 (centres unmarked) [Compound 6w]	–	–	–	> 1250	–	7.2	–	–
CCOP(=O)(c1ccccc1C)c1c(C(N)=O)[nH]c2ccc(Cl)cc12 (centres unmarked) [Compound 6x]	448	–	21.3	–	–	–	–	–
CCOP(=O)(c1ccc(C)c(C)c1)c1c(C(N)=O)[nH]c2ccc(Cl)cc12 (centres unmarked) [Compound 6y]	> 1250	–	2.6	–	–	–	–	–
COP(=O)(c1ccccc1)c1c(C(N)=O)[nH]c2ncc(Cl)cc12 (centres unmarked) [Compound 7-Aza]	193	> 1250	14.7	–	–	–	–	–
COP(=O)(c1cc(C)cc(C)c1)c1c(C(N)=O)[nH]c2ccc(Cl)cc12 (centres unmarked) [Compound 7a]	–	–	–	1	1.2	0.2	–	–
COP(=O)(c1cccc(C2CC2)c1)c1c(C(N)=O)[nH]c2ccc(Cl)cc12 (centres unmarked) [Compound 7aa]	–	–	–	3.7	7	2.2	–	–
COP(=O)(c1cccc(C)c1)c1c(C(N)=O)[nH]c2ccc(Cl)cc12 (centres unmarked) [Compound 7ac]	5.5	9.6	1.3	–	–	–	–	–
COP(=O)(c1ccccc1C)c1c(C(N)=O)[nH]c2ccc(Cl)cc12 (centres unmarked) [Compound 7ad]	4.7	32	1.3	–	–	–	–	–
COP(=O)(c1ccc(C)c(C)c1)c1c(C(N)=O)[nH]c2ccc(Cl)cc12 (centres unmarked) [Compound 7ae]	–	–	–	1.1	11.1	0.5	–	–

SMILES	EC50 [1, 4] [nM]	EC50 [2, 5] [nM]	EC50 [3, 6] [nM]	EC50 [1, 7] [nM]	EC50 [2, 8] [nM]	EC50 [3, 9] [nM]	EC50 [1, 10] [nM]	EC50 ([3]; read-out: EC50 WT///B, BH-10 cells, wild type) [nM]
COP(=O)(c1cc(F)cc(F)c1)c1c(C(N)=O)[nH]c2ccc(Cl)cc12 (centres unmarked) [Compound 7aj]	–	–	–	9.1	17.7	0.6	–	–
COP(=O)(c1ccc(F)cc1)c1c(C(N)=O)[nH]c2ccc(Cl)cc12 (centres unmarked) [Compound 7ak]	–	–	–	468	34.5	5.5	–	–
COP(=O)(c1ccccc1F)c1c(C(N)=O)[nH]c2ccc(Cl)cc12 (centres unmarked) [Compound 7al]	2.6	13.9	0.5	–	–	–	–	–
CCc1ccccc1P(=O)(OC)c1c(C(N)=O)[nH]c2ccc(Cl)cc12 (centres unmarked) [Compound 7an]	–	–	–	1.3	50.5	2.9	–	–
COP(=O)(c1ccccc1Cl)c1c(C(N)=O)[nH]c2ccc(Cl)cc12 (centres unmarked) [Compound 7ao]	–	–	–	1.4	2	0.4	–	–
COP(=O)(c1cccc(COCc2ccccc2)c1)c1c(C(N)=O)[nH]c2ccc(Cl)cc12 (centres unmarked) [Compound 7ap]	–	–	–	> 1250	1140	153	–	–
COP(=O)(c1cccc(CO)c1)c1c(C(N)=O)[nH]c2ccc(Cl)cc12 (centres unmarked) [Compound 7aq]	–	–	–	126	83.1	2.5	–	–
COP(=O)(c1cccc(C(C)(C)C)c1)c1c(C(N)=O)[nH]c2ccc(Cl)cc12 (centres unmarked) [Compound 7ar]	–	–	–	30.6	19.3	2.9	–	–
COP(=O)(c1cc(C)cc(C#N)c1)c1c(C(N)=O)[nH]c2ccc(Cl)cc12 (centres unmarked) [Compound 7as]	–	–	–	2.9	4.8	1.4	–	–
COP(=O)(c1cc(F)cc(C#N)c1)c1c(C(N)=O)[nH]c2ccc(Cl)cc12 (centres unmarked) [Compound 7at]	10.3	22.1	5.7	–	–	–	–	–
COP(=O)(c1cc(Cl)cc(Cl)c1)c1c(C(N)=O)[nH]c2ccc(Cl)cc12 (centres unmarked) [Compound 7b]	–	–	–	16.8	5.3	1.2	–	–
COP(=O)(c1cccc(Cl)c1)c1c(C(N)=O)[nH]c2ccc(Cl)cc12 (centres unmarked) [Compound 7c]	–	–	–	2.6	8.7	0.4	–	–
CCc1cccc(P(=O)(OC)c2c(C(N)=O)[nH]c3ccc(Cl)cc23)c1 (centres unmarked) [Compound 7d]	–	–	–	1.4	6.5	0.6	–	–
COP(=O)(c1cccc(C(F)(F)F)c1)c1c(C(N)=O)[nH]c2ccc(Cl)cc12 (centres unmarked) [Compound 7e]	–	–	–	1.2	3.2	0.9	–	–
COP(=O)(c1cccc(C#N)c1)c1c(C(N)=O)[nH]c2ccc(Cl)cc12 (centres unmarked) [Compound 7f]	–	–	–	15.3	10.5	0.9	–	–
COP(=O)(c1cccc(C(C)C)c1)c1c(C(N)=O)[nH]c2ccc(Cl)cc12 (centres unmarked) [Compound 7g]	–	–	–	7.7	8.8	2.5	–	–
COP(=O)(c1cccc(CF)c1)c1c(C(N)=O)[nH]c2ccc(Cl)cc12 (centres unmarked) [Compound 7h]	–	–	–	2.5	6.1	0.9	–	–
COP(=O)(c1cccc(-c2ccccc2)c1)c1c(C(N)=O)[nH]c2ccc(Cl)cc12 (centres unmarked) [Compound 7i]	–	–	–	380	398	9.9	–	–
COP(=O)(c1cc(C)cc(C)c1)c1c(C(=O)NCc2ccc(F)cc2F)[nH]c2ccc(Cl)cc12 (centres unmarked) [Compound 18aaj]	–	–	–	41.6	–	–	25.8	–
COc1cccc(P(=O)(OC)c2c(C(=O)NCc3ccncc3)[nH]c3ccc(Cl)cc23)c1 (centres unmarked) [Compound 18av]	–	–	–	2.4	–	0.7	1.4	0.8
COP(=O)(c1c(C(N)=O)[nH]c2ccc(Cl)cc12)C1CCCCC1 (centres unmarked) [Compound 57a]	–	–	–	162	–	1.7	–	–
